This is an account of results in patent publication US8404677B2, “Kinase inhibitors” (Genosco, priority 2009, dated 2013).

The target in one assay is T1, truncated human RET (Homo sapiens, UniProt P07949).
T1 construct: truncated human FAK, RET, FLT3, JAK2, and LRRK2 (CARNA BIOSCIENCES™); purchased Carna Biosciences
T1 sequence (P07949 658-1114 limits assumed): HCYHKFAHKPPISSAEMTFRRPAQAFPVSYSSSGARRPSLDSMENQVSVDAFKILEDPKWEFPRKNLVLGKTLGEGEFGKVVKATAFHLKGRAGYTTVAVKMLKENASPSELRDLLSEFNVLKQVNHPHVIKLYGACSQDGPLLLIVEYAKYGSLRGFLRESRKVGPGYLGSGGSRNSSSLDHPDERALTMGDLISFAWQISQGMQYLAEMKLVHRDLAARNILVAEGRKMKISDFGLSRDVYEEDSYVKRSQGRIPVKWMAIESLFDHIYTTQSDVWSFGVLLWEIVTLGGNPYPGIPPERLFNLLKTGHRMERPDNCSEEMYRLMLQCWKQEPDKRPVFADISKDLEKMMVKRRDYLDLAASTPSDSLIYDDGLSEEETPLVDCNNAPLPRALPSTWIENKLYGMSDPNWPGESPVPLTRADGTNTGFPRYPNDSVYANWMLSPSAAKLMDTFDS
As to the kind of experiment: Inhibition of enzymatic kinase activity (LANCE Ulight). It is filed as biochemical. How it is done: (§1) Inhibition of Enzymatic SYK, ZAP70, PYK2, FAK, PIM1, RET, FLT3, JAK2 and LRRK2 Kinase Activity
(§2) Compounds of the invention were initially diluted to 10 mM in 100% DMSO (CALBIOCHEM™) for storage and made into kinase buffer solution to create a compound concentration ranging from 1 uM and 10 uM. Serial dilutions of compounds of the invention were dispensed into a 96-well plate (GREINER BIOSCIENCES™) at 6 μL each. Purified full-length human SYK, ZAP70, PIM1, PYK2 and truncated human FAK, RET, FLT3, JAK2, and LRRK2 (CARNA BIOSCIENCES™) were diluted in kinase buffer and added to the compound solutions and pre-incubated for 30 minutes at room temperature (1 hour for PYK2). […] The reaction mixture was incubated for 1 hour (2 hours for PYK2). Following the incubation, the stop solution made with EDTA, water, and Lance detection buffer ([…]™) was added (12 μL each) to stop phosphorylation.
In general terms: TR-FRET usually uses a lanthanide donor and a delayed reading to cut background.

The next assay deals with T2, truncated human FLT3 (Homo sapiens, UniProt P36888).
T2 construct: truncated human FAK, RET, FLT3, JAK2, and LRRK2 (CARNA BIOSCIENCES™); purchased Carna Biosciences
T2 sequence (P36888 564-993 limits assumed): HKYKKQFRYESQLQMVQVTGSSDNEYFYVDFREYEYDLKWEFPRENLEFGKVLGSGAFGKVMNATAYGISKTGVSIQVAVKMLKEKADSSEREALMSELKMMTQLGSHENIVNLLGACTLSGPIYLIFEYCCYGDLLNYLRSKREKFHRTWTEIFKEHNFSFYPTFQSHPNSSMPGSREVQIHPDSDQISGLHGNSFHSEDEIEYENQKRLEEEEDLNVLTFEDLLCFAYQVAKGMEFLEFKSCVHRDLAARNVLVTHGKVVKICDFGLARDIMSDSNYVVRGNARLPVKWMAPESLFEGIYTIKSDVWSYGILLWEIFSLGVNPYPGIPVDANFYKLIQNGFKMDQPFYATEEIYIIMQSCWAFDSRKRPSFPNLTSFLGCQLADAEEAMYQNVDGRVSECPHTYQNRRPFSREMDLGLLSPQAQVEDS
The assay is described as above. It is filed as biochemical. How it is done: as §1, §2

In a further assay the target is T3, truncated human JAK2 (Homo sapiens, UniProt O60674).
T3 construct: truncated human FAK, RET, FLT3, JAK2, and LRRK2 (CARNA BIOSCIENCES™); purchased Carna Biosciences
Described as above. The class given is biochemical. How it is done: as §1, §2

Assay [1] concerns TNF-α release in THP-1 cells, IgG stimulation. As to the kind of experiment: SYK dependent TNF-α release assay (IgG stimulation). The class given is cell-based, human. Particulars: for percentage inhibition of TNF-α release compared with R406: IgG stimulated release, 0.3 μM. How it is done: Compounds of the invention were tested for their TNF-α release effect on THP-1 cells. For SYK dependent TNF-α release assay (i.e., via IgG stimulation), THP-1 cells derived from human monocytic cells were obtained from the American Type Culture Collection (ATCC, Manassas, Va.). This cell line was maintained with an Roswell Park Memorial Institute (RPMI) medium (GIBCO™) containing 10 fetal bovine serum (FBS; GIBCO™) and 0.05 mM 2-mercaptoethanol. The THP-1 cells were seeded at 1×10^5 cells/100 μL/well into human IgG ([…], INVITROGEN™)-coated 96 well culture plate, and serially diluted compound was then added. After an 18-hour incubation period at 37° C., supernatants were collected for the determination of the TNF-α level by enzyme-linked immunosorbent assay (ELISA), and the remaining cells were subjected to an MTT (yellow tetrazolium salt) assay to determine the cytotoxic effects of compound.

The target of the next assay is PYK2 (Homo sapiens, UniProt Q14289). As to the kind of experiment: Inhibition of enzymatic kinase activity (LANCE Ulight). The class given is biochemical. Details: Purified full-length human SYK, ZAP70, PIM1, PYK2; purchased Carna Biosciences. The following applies: for IC50: read-out: PYK2 molar inhibition (IC50); for inhibition at 1 µM: at 1 μM concentration, read-out: PYK2 percentage inhibition. How it is done:
as §1, §2

Another assay addresses SYK (Homo sapiens, UniProt P43405). The assay is described as above. The class given is biochemical. The arrangement: Purified full-length human SYK, ZAP70, PIM1, PYK2; purchased Carna Biosciences. The following applies: for IC50: read-out: SYK molar inhibition (IC50); for inhibition at 1 µM: at 1 μM concentration, read-out: SYK percentage inhibition. How it is done:
as §1, §2

Another assay has as its target T4, truncated human FAK (Homo sapiens, UniProt Q05397).
T4 construct: truncated human FAK, RET, FLT3, JAK2, and LRRK2 (CARNA BIOSCIENCES™); purchased Carna Biosciences
The assay is described as above. It is filed as biochemical. Particulars: for IC50: read-out: FAK molar inhibition (IC50); for inhibition at 1 µM: at 1 μM concentration, read-out: FAK percentage inhibition. How it is done: as §1, §2

The target of the next assay is T5, human PIM1 (Homo sapiens, UniProt P11309).
T5 construct: Purified full-length human SYK, ZAP70, PIM1, PYK2; purchased Carna Biosciences
The description is as above. The class given is biochemical. The following applies: at 1 μM concentration; read-out: PIM1 percentage inhibition. How it is done:
as §1
as §2, with “phosphorylation. […] Substrate phosphorylation was a function of the 665 nm emission measured following the addition of the detection solution and 50 minutes of incubation.” for “phosphorylation.”

A further assay has as its target T6, human ZAP70 (Homo sapiens, UniProt P43403).
T6 construct: Purified full-length human SYK, ZAP70, PIM1, PYK2; purchased Carna Biosciences
T6 sequence (P43403 1-619): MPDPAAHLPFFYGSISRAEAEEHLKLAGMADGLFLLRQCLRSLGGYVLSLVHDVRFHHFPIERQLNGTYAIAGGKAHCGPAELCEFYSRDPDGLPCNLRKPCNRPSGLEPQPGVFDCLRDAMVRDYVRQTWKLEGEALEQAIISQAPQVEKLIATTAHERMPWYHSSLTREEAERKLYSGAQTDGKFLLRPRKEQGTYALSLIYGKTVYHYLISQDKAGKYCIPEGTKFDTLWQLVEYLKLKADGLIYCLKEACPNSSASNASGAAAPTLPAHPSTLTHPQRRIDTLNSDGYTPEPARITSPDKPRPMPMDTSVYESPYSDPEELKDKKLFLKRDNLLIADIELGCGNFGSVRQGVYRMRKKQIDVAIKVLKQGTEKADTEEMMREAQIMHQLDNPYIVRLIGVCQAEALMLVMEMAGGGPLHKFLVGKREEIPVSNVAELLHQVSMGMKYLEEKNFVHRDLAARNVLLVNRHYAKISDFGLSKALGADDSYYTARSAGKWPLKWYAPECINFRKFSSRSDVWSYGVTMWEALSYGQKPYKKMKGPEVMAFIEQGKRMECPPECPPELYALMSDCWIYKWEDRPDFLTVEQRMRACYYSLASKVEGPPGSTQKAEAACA
The assay is described as above. It is filed as biochemical. The following applies: at 1 μM concentration; read-out: ZAP70 percentage inhibition. How it is done:
as §1, §2

Structures can show the parent of a compound that is named as a salt.

PYK2, sequence (Q14289 whole entry): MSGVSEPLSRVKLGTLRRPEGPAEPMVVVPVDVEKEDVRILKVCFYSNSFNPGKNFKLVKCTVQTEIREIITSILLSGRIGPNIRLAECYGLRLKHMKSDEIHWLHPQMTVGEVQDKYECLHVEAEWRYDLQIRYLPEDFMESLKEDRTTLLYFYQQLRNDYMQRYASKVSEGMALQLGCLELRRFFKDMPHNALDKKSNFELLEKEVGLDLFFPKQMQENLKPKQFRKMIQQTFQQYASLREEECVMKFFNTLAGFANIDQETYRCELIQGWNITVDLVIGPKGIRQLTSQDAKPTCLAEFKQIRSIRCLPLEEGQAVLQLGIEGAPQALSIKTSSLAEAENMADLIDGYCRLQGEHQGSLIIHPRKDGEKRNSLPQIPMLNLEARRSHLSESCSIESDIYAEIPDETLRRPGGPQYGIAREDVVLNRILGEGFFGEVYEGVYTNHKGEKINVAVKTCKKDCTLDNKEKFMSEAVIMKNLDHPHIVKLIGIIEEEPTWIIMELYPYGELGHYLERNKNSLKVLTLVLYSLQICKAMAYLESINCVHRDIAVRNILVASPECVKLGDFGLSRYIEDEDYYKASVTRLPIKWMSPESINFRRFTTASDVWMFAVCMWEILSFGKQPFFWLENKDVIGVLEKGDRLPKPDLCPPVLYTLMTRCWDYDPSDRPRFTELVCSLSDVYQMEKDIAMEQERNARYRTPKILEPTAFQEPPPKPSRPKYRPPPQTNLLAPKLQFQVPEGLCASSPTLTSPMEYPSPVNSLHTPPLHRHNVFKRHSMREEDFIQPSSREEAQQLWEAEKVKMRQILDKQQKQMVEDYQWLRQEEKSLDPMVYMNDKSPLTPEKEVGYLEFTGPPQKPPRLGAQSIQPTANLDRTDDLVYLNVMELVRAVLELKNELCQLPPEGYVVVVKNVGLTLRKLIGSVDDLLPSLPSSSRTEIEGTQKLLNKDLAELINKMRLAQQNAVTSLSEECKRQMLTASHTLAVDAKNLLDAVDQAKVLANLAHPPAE
T4 sequence (Q05397 376-1052 limits assumed): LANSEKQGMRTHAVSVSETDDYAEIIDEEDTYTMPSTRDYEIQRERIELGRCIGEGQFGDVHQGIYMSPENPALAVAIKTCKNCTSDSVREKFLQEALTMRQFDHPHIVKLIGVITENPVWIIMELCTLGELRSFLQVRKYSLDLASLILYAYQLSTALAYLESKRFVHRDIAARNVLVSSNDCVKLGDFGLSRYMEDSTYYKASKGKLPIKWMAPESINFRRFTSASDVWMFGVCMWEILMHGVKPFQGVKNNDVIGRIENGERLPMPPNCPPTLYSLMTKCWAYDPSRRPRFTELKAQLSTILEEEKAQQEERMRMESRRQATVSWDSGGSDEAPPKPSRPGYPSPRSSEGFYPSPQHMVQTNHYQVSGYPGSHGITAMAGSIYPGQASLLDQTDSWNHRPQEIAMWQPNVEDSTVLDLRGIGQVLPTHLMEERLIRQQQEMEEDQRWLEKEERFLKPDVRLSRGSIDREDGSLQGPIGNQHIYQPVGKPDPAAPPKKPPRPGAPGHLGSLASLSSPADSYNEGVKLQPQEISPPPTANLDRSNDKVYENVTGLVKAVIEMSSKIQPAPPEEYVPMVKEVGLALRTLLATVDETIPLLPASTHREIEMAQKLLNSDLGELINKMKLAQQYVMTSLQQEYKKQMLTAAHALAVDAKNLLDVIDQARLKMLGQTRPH
T3 sequence (O60674 826-1132 limits assumed): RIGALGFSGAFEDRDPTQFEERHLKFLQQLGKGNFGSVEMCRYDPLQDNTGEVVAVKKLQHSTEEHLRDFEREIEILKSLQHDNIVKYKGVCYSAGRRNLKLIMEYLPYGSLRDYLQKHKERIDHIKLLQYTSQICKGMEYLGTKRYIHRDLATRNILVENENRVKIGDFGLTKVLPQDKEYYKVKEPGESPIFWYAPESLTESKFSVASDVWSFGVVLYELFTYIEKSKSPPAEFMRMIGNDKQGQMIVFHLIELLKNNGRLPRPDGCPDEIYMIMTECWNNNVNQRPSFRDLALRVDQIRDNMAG
T5 sequence (P11309 whole entry): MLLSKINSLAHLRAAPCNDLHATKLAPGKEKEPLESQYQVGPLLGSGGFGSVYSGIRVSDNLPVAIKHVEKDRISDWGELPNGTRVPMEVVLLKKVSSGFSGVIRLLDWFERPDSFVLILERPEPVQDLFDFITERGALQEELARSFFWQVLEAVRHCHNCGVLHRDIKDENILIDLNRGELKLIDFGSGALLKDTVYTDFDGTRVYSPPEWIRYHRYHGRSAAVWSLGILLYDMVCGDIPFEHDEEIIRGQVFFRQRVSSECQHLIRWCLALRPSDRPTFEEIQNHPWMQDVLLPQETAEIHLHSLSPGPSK

As to `COc1cc(Nc2nc(N3CCC(O)CC3)nc3cc[nH]c(=O)c23)cc(OC)c1` [Compound 1, 4-(3,5-dimethoxyphenylamino)-2-(4-hydroxypiperidin-1-yl)pyrido[4,3,-d]pyrimidin-6(6H)-one], the IC50 against truncated human RET was 200 nM; on truncated human FLT3, 242 nM; at truncated human JAK2, 59.4 nM.
As to `COc1ccc(Nc2nc(N3CCC(CO)CC3)nc3cc[nH]c(=O)c23)cc1C(F)(F)F` [Compound 151, 2-(4-(hydroxymethyl)piperidin-1-yl)-4-(4-methoxy-3-(trifluoromethyl)phenylamino)pyrido[4,3d]pyrimidin-5(6H)-one], the “percentage inhibition of TNF-α release compared with R406” value in [1] is listed as “greater than those exhibited by R406”. The IC50 at PYK2 was found to be 90.2 nM; on SYK, 8.2 nM; on truncated human FAK it was 217 nM.
As to `CS(=O)(=O)c1ccc(Nc2nc(N3CCC(O)CC3)nc3cc[nH]c(=O)c23)cc1` [Compound 126, 2-(4-hydroxypiperidin-1-yl)-4(4-(methylsulfonyl)phenylamino)pyrido[4,3d]pyrimidin-5(6H)-one], the inhibition at 1 µM on PYK2 was 39.5%; on SYK, 95.1%; on human PIM1, 12.7%; at truncated human FAK, 80.8%; on human ZAP70, 49.3%.
Regarding `O=c1[nH]ccc2nc(N3CCC(O)CC3)nc(Nc3ccc(N4CCOCC4)cc3)c12` [Compound 134, 2-(4-hydroxypiperidin-1-yl)-4-(4-morpholinophenylamino)pyrido[4,3-d]pyrimidin-5(6H)-one], the IC50 against truncated human RET turned out to be 7.3 nM; against truncated human JAK2, 3.7 nM.
Consider `COc1cc(Nc2ncc(F)c(Nc3ccc4c(n3)NC(=O)C(C)(C)O4)n2)cc(OC)c1OC` [Compound R406, reference compound], for which the “Inhibition of TNF-α Release (percentage inhibition)” value came to 49.9% in assay [1] (IgG stimulation, At 0.3 μM, THP-1) and 87.4% in assay [1] (IgG stimulation, At 1 μM, THP-1).
With `N[C@@H]1CCCC[C@H]1Nc1nc(Nc2cc(C(F)(F)F)cc(C(F)(F)F)c2)c2c(=O)[nH]ccc2n1` [Compound 100, 2-((1R,2R)-2-aminocyclohexylamino)-4-(3,5-bis(trifluoromethyl)phenylamino)pyrido[4,3-d]pyrimidin-5(6H)-one], the inhibition at 1 µM was found to be 88.4% on PYK2, 37.7% on SYK, 21.9% on truncated human FAK and 9% on human ZAP70.
Regarding `COc1cc(Nc2nc(N3CCC(O)CC3)nc3cc[nH]c(=O)c23)cc(OC)c1OC` [Compound 149, 2-(4-hydroxypiperidin-1-yl)-4-(3,4,5-triemethoxyphenylamino)pyrido[4,3d]pyrimidin-5(6H)-one], the IC50 against truncated human RET came to 32.7 nM; against truncated human FLT3, 151 nM; against truncated human JAK2, 151 nM.
`COc1cc(Nc2nc(N3CCC(O)(CO)CC3)nc3cc[nH]c(=O)c23)cc(OC)c1` [Compound 2, 4-(3,5-dimethoxyphenylamino)-2-(4-hydroxy-4-(hydroxymethyl)piperidin-1-yl)pyrido[4,3d]pyrimidin-5(6H)-one]: the IC50 at truncated human RET was 363 nM; at truncated human FLT3 it was 368 nM; at truncated human JAK2, 73.8 nM.
For `O=c1[nH]ccc2nc(N[C@H]3CCNC3)nc(Nc3ccc(Oc4ccccc4)cc3)c12` [Compound 125, (S)-4-(phenoxyphenylamino)-2-(pyrrolidin-3-ylamino)pyrido[4,3-d]pyrimidin-5(6H)-one hydrochloride], the IC50 against truncated human RET stood at 3.4 nM; against truncated human FLT3 it was 0.6 nM; against truncated human JAK2 it was 24.9 nM.
In the same order, the values of `COc1ccc(Nc2nc(N3CCC(O)CC3)nc3cc[nH]c(=O)c23)cc1C(F)(F)F` [Compound 150, 2-(4-hydroxypiperidin-1-yl)-4-(4-methoxy-3-(trifluoromethyl)phenylamino)pyrido[4,3d]pyrimidin-5(6H)-one] are 115 nM, 106 nM and 65.3 nM.
As to `COc1ccc(Nc2nc(N3CCC(O)(CO)CC3)nc3cc[nH]c(=O)c23)cc1C(F)(F)F` [Compound 152, 2-(4-hydroxy-4-(hydroxymethyl)piperidin-1-yl)-4-(4-methoxy-3-(trifluoromethyl)phenylamino)pyrido[4,3-d]pyrimidin-5(6H)-one], the inhibition at 0.3 µM in assay [1] (Homo sapiens, IgG stimulation, At 0.3 μM, THP-1, read-out: Inhibition of TNF-α Release (percentage inhibition)) came out at 80.5%. In addition, in [1] (Homo sapiens, IgG stimulation, At 1 μM, THP-1, read-out: Inhibition of TNF-α Release (percentage inhibition)), the inhibition at 1 µM worked out at 82.9%. Besides, the “percentage inhibition of TNF-α release compared with R406” value in [1] was “higher percentage inhibition”. For the same molecule, the results for the IC50 at PYK2, at SYK and on truncated human FAK were 84.3 nM, 2.7 nM and 337 nM, respectively.

As usually defined, the IC50 is the concentration needed to halve the response being measured. In general, inhibition refers to the change of the read-out against control, counted positive when it falls.
